Data reported in US20030235811A1, “Crystallized mammalian carboxylesterase polypeptide and screening methods employing same” (priority 2002, published 2003).

Assays:
wild type rCE = target: T1, wild type rCE (Oryctolagus cuniculus, UniProt P12337); assay: CD thermal denaturation of wild type rCE in the presence of 4PP; type: binding, rabbit; details: 1 mM βME
T1 construct: made in house; host or cells: Spodoptera frugiperda Sf21 cells, baculovirus, secreted into the medium
T1 sequence (P12337 19-559 limits assumed): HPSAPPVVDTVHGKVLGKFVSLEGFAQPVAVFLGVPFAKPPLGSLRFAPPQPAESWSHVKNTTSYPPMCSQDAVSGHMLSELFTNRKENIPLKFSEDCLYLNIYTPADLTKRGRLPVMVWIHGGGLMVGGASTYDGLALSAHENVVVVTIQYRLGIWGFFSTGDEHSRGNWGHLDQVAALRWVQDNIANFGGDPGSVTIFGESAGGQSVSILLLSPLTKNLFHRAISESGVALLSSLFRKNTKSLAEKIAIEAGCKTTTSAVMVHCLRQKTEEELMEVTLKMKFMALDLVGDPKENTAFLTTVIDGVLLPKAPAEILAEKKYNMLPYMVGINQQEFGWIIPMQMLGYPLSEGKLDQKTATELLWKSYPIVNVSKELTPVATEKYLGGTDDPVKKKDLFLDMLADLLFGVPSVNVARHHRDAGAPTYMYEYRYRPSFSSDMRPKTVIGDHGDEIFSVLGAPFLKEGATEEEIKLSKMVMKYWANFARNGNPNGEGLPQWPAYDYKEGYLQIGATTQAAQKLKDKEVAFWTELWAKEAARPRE
Description: (§1) Experiments were conducted by monitoring rCE denaturation in an Applied Photophysics PISTAR-180™ CD spectropolarimeter (Applied Photophysics, Surrey, United Kingdom). Deglycosylated rCE was generated by an 18-hour treatment with 0.25 μM PNGase F (Hampton Research, Laguna Niguel, Calif., United States of America) at 37° C., which cleaves the complete high-mannose glycosyl group. Removal of the carbohydrate chains was confirmed by SDS-PAGE. Wild type protein was also heated to 37° C. for 18 hours before CD experiments. Wild type or deglycosylated rCE (0.15 mg ml^−1 (2.5 μM); in 10 mM phosphate buffer, pH 7.0, and 1 mM fresh beta-mercaptoethanol (βME) to eliminate the stabilizing effect of disulfide linkages) was treated with no 4PP or with 0.016 mM, 0.16 mM, 1.6 mM or 10 mM 4PP. The temperature was increased from 20 to 98° C. while monitoring the ellipticity at 222 nm. […]
(§2) To confirm the significance of the 4PP bound to the surface of rCE, thermal denaturation studies were performed using CD on both wild type and deglycosylated rCE. […] In the presence of fresh reducing agent (1 mM β-mercaptoethanol (βME)), thermal denaturation of wild type and deglycosylated rCE was monitored alone and in the presence of 10-(0.016 mM), 100-(0.16 mM), 1,000-(1.6 mM) and 6,000-fold (10 mM) molar excess 4PP (FIGS. 7-9). […]

deglycosylated rCE = target: T2, deglycosylated rCE (Oryctolagus cuniculus, UniProt P12337); assay: CD thermal denaturation of deglycosylated rCE in the presence of 4PP; type: binding, rabbit
T2 construct: made in house; host or cells: Spodoptera frugiperda Sf21 cells, baculovirus, secreted; then PNGase F treatment
T2 sequence (P12337 19-559): T1 sequence (P12337 19-559 limits assumed)
Description: as §1, §2

[1] = humans; cited from earlier work
hCE1 = hCE1 (Homo sapiens, UniProt P23141)
hCE1, sequence (P23141 18-560 isoform P23141-3 limits assumed): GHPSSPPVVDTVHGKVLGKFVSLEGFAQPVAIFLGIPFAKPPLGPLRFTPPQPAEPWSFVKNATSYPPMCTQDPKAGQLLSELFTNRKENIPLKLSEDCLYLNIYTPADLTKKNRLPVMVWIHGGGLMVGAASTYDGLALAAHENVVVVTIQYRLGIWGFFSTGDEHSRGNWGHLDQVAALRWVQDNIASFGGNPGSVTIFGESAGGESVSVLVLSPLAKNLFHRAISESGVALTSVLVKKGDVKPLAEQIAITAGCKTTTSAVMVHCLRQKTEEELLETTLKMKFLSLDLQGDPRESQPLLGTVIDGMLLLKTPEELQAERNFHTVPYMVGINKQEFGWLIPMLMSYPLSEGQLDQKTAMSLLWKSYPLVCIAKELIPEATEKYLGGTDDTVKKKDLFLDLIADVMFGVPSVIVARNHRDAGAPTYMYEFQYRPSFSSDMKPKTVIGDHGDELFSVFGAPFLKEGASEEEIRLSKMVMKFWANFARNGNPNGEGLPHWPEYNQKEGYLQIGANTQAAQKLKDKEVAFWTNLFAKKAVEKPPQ
Description: A 62 kDa C-terminally-truncated form of human carboxylesterase 1 (hCE1; SEQ ID NO: 4) that lacks six C-terminal amino acids, allowing secretion of the expressed enzyme (baculovirus in Spodoptera frugiperda Sf21 cells) into the culture media, was employed. hCE1 was purified by preparative isoelectric focusing and size exclusion chromatography (BIO-GEL® P-100, Bio-Rad, Laboratories, Hercules, Calif.) from protein-free culture media. Purified hCE1 was concentrated to 5 mg ml^−1 in 20 mM HEPES pH 7.4, and crystallized in the presence of either 10 mM tacrine or 100 mM homatropine. […]
Diffraction data were collected at Stanford Synchrotron Radiation Laboratory (SSRL) beamline 9-1, and were processed and reduced using MOSFILM (Leslie, (1992), Joint CCP4+ESF-EAMCB Newsletter on Protein Crystallography, No. 26.). […] The structures of hCE1 were determined by molecular replacement using the structure of rabbit carboxylesterase (rCE; RCSB Protein ID No. 1K4Y; Bencharit et al., (2002) Nat.Struct.Biol. 9: 337), also an aspect of the present invention, as a search model (81% sequence identity). […] Manual adjustments and rebuilding were performed using the program O (Jones et al., (1991) Acta Crystallogr. A 47: 110-119) and σA-weighted electron density maps (Read, (1986) Acta Crystallogr. A 42: 140-149). […]

[2] = target: the molecule itself; assay: X-ray crystal structure (self-association, homotrimer)
Description: Diffraction data were collected at Stanford Synchrotron Radiation Laboratory (SSRL) beamline 9-1, and were processed and reduced using MOSFILM (Leslie, (1992), Joint CCP4+ESF-EAMCB Newsletter on Protein Crystallography, No. 26.). Crystals were of space group P2₁, and contained six molecules in the asymmetric unit for both the tacrine and homatropine complexes. See FIG. 12, in which each hCE1 is depicted in a different color. The structures of hCE1 were determined by molecular replacement using the structure of rabbit carboxylesterase (rCE; RCSB Protein ID No. 1K4Y; Bencharit et al., (2002) Nat.Struct.Biol. 9: 337), also an aspect of the present invention, as a search model (81% sequence identity). Non-identical side chains were trimmed prior to rotation and translation function searches in AmoRe (Navaza & Saludjian, (1997) Methods Enzymol. 276A: 581-594). The structures were refined using torsion angle dynamics in CNS with the maximum likelihood function target, and included an overall anisotropic B-factor and a bulk solvent correction. […] Manual adjustments and rebuilding were performed using the program O (Jones et al., (1991) Acta Crystallogr. A 47: 110-119) and σA-weighted electron density maps (Read, (1986) Acta Crystallogr. A 42: 140-149). […]

With `C1CCN(C2CCNCC2)CC1` [4PP, 4-piperidino-piperidine] the “melting temperature (Tm) of wild type rCE” value (wild type rCE; 10- to 100-fold molar excess of 4PP (0.016-0.16 mM)) was 51 °C, the “melting temperature (Tm) of wild type rCE” value (wild type rCE; higher concentrations of 4PP (1.6 mM, 10 mM)) was 54-55 °C and the “effect on thermal stability of deglycosylated rCE” value (deglycosylated rCE; high concentrations of 4PP) was “stabilization occurs only with high concentrations”. The “effect on thermal stability of deglycosylated rCE” value (deglycosylated rCE; lower concentrations of 4PP) was “destabilize the enzyme”.

In the case of `CCc1c2c(nc3ccc(O)cc13)-c1cc3c(c(=O)n1C2)COC(=O)[C@]3(O)CC` [SN-38], the “share of the SN-38 generated by activation of CPT-11 that makes it to the tumor” value [1] is listed as roughly 2%.

With `Nc1c2c(nc3ccccc13)CCCC2` [tacrine, 1,2,3,4-tetrahydro-9-acridinamine] the “binding to hCE1” value (hCE1) was “binds effectively”.

B1: human carboxylesterase 1 (hCE1), 62 kDa C-terminally-truncated form lacking six C-terminal amino acids (enzyme)
chain: GHPSSPPVVDTVHGKVLGKFVSLEGFAQPVAIFLGIPFGKPPLGPLRFTPPQPAEPWSFVKNATSYPPMCTQDPKAGQLLSELFTNRKENIPLKLSEDCLYLNIYTPADLTKKNRLPVMVWIHGGGLMVGAASTYDGLALAAHENVVVVTIQYRLGIWGFFSTGDEHSRGNWGHLDQVAALRWVQDNIASFGGNPGSVTIFGESAGGESVSVLVLSPLAKNLFHRAISESGVALTSVLVKKGDVKPLAEQIAITAGCKTTTSAVMVHCLRQKTEEELLETTLKMKFLSLDLQGDPRESQPLLGTVIDGMLLLKTPEELQAERNFHTVPYMVGINKQEFGWLIPMLMSYPLSEGQLDQKTAMSLLWKSYPLVCIAKELIPEATEKYLGGTDDTVKKKDLFLDLIADVMFGVPSVIVARNHRDAGAPTYMYEFQYRPSFSSDMKPKTVIGDHGDELFSVFGAPFLKEGASEEEIRLSKMVMKFWANFARNGNPNGEGLPHWPEYNQKEGYLQIGANTQAAQKLKDKEVAFWTNLFAKKAVEKPPQT
modifications: N-linked glycans (added to the model in refinement; positions not stated for the crystallised protein)
notes: Expressed by baculovirus in Spodoptera frugiperda Sf21 cells and secreted into the culture media; crystallised with tacrine or homatropine; also called human CE; human CE1
B1: binds [2].
